Measurements as given in ChEMBL document CHEMBL5705896 (ACS Chem Biol, 2013).
The source made the active and inactive calls. The rule behind the calls is not given here.

Legend:
[1] = biological target: T1, Histone-lysine N-methyltransferase EZH2 (Homo sapiens, UniProt Q15910); test: Inhibition of EZH2 methyltransferase activity (unknown origin) in PRC2 complex using 3H-SAM as substrate by Scintillation proximity assay
Target sequence in this assay (Q15910 whole entry): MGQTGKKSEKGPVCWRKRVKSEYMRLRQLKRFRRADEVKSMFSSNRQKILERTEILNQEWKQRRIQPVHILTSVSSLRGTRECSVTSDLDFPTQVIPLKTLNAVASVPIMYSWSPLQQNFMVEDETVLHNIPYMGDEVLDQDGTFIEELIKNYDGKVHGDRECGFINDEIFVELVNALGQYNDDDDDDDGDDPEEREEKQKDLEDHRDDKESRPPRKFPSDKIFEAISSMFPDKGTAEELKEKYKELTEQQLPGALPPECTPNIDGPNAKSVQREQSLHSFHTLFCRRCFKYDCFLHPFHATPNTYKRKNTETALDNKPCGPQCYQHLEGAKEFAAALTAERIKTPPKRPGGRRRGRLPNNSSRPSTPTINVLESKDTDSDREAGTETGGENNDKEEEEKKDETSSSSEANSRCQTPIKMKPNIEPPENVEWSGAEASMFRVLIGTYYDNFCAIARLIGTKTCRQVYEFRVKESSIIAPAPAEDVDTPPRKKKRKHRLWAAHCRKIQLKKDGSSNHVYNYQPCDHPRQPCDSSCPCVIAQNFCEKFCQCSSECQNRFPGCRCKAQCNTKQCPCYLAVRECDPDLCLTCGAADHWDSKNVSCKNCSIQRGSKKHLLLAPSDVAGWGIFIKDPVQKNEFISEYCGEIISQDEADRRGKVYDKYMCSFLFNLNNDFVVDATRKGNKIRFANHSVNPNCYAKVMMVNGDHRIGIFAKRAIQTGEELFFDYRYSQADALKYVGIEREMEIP

[2] = biological target: Histone-lysine N-methyltransferase EZH2 (Homo sapiens, UniProt Q15910, Y641F); test: Inhibition of EZH2 Y641F mutant (unknown origin) using HMT as substrate incubated for 60 mins by luminescence based analysis
Chain of Histone-lysine N-methyltransferase EZH2 (Homo sapiens, UniProt Q15910, Y641F) (Q15910 whole entry Y641F): as the sequence (Q15910 whole entry) above, with Y641F counted along it

[3] = tested on: DB; test: Downregulation of H3K27me3 level in human DB cells at 3000 nM measured after 3 days; assay type: functional, cell-based; settings: time 3.0 day
[4] = tested on: DB; test: Downregulation of EZH2 level in human DB cells at 3000 nM measured after 3 days; assay type: functional, cell-based; settings: time 3.0 day
[5] = tested on: DB; test: Antiproliferative activity against human DB cells assessed as reduction in cell viability at 3000 nM measured after 8 days by cell proliferation assay; assay type: functional, cell-based; settings: time 8.0 day
[6] = biological target: Histone-lysine N-methyltransferase EZH1 (Homo sapiens, UniProt Q92800); test: Inhibition of EZH1 methyltransferase activity (unknown origin) in PRC2 complex using 3H-SAM as substrate by Scintillation proximity assay
Chain of Histone-lysine N-methyltransferase EZH1 (Q92800 whole entry): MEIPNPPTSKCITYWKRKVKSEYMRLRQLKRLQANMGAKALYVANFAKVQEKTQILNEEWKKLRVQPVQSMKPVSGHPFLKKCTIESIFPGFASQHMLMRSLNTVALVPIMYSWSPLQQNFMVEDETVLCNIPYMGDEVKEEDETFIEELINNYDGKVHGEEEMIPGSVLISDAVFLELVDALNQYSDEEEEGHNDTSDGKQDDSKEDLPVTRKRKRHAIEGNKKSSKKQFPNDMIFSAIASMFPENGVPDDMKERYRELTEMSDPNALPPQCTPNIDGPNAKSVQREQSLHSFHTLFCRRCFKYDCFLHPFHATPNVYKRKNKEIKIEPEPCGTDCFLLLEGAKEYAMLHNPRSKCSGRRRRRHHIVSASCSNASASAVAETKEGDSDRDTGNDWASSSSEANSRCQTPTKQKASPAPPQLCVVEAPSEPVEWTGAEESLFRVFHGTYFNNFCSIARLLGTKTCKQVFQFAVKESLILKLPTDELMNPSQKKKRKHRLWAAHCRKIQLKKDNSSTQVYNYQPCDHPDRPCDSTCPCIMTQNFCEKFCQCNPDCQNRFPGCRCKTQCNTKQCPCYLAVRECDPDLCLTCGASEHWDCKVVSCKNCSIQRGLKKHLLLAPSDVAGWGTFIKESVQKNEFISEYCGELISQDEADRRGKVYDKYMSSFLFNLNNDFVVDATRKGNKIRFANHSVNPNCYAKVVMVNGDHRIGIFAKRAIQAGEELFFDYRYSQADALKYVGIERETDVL

[7] = Cytotoxicity against human MCF-10A cells assessed as reduction in cell viability by alamar blue assay; assay type: toxicity, cell-based
[8] = biological target: T1, Histone-lysine N-methyltransferase EZH2; test: Binding affinity to GFP-tagged EZH2 in HEK293 cells assessed as nuclear colocalization at 3.75 uM incubated for 15 mins by imaging based analysis; assay type: cell-based
Target sequence in this assay (Q15910 whole entry, looked up): as the sequence (Q15910 whole entry) above

[9] = biological target: Histone-lysine N-methyltransferase EZH2 (Mus musculus) (UniProt Q61188); test: Binding affinity to EZH2 in mouse MEF cells expressing YPet fluorophore assessed as increase in fluorescence intensity in nucleus at 3.75 uM incubated for 15 mins; assay type: cell-based
Chain of Histone-lysine N-methyltransferase EZH2 (Mus musculus) (Q61188 whole entry): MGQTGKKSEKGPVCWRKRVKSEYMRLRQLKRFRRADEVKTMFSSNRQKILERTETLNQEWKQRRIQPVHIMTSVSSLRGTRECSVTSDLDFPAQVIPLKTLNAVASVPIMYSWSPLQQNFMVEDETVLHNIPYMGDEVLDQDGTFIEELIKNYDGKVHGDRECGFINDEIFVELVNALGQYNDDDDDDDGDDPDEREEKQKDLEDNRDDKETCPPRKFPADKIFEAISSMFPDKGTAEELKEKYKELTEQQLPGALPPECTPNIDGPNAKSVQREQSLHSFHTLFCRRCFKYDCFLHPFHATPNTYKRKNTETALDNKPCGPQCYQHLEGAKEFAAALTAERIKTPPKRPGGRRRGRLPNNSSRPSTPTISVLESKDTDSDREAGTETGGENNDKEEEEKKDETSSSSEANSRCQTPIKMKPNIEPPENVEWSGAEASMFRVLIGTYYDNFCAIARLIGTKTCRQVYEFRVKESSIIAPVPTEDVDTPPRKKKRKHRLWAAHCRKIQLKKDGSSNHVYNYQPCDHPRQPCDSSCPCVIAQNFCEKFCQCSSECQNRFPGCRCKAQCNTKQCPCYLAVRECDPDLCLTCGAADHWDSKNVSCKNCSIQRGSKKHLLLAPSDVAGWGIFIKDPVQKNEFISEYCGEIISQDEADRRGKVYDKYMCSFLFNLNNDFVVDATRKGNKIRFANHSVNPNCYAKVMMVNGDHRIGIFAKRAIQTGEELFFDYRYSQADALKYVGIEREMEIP

SMILES | IC50 [1] [nM] | further results
CCCc1cc(C)[nH]c(=O)c1CNC(=O)c1cc(-c2ccc(N3CCN(C)CC3)nc2)cc2c1cnn2C(C)C | < 10 | 
CCCc1cc(C)[nH]c(=O)c1CNC(=O)c1cc(-c2ccc(F)cc2)cc2c1cnn2C(C)C | 63 | 
CCCc1cc(C)[nH]c(=O)c1CNC(=O)c1cc(-c2ccc(N3CCNCC3)nc2)cc2c1cnn2C(C)C | < 10 | 
CCCc1cc(C)[nH]c(=O)c1CNC(=O)c1cc(-c2ccc(N3CCN(C(=O)CCOCCOCCOCCOCCOCCOCCOCCOCCOCCOCCOCCOCCNC(=O)CCCC[C@@H]4SC[C@@H]5NC(=O)N[C@@H]54)CC3)nc2)cc2c1cnn2C(C)C | 17 | 
CCCc1cc(C)[nH]c(=O)c1CNC(=O)c1cc(-c2ccc(N3CCN(CC)CC3)nc2)cc2c1cnn2C(C)C | < 10 | 
CCCc1cc(C)[nH]c(=O)c1CNC(=O)c1cc(-c2ccc(F)cn2)cc2c1cnn2C(C)C | 10 | 
CCCc1cc(C)n(C)c(=O)c1CN(C)C(=O)c1cc(-c2ccc(N3CCN(C(C)C)CC3)nc2)cc2c1cnn2C(C)C | 13000 | IC50 [2]: > 200000 nM; Activity [3]: inactive; Activity [4]: inactive; Activity [5]: inactive; IC50 [6]: 62000 nM; EC50 [7]: 27500 nM
CCCc1cc(C)[nH]c(=O)c1CNC(=O)c1cc(-c2ccc(N3CCN(CCCCc4cn(CCN5C(=O)/C(=C/C=C/C=C6\N(CCC(=O)OCOC(C)=O)c7ccc(C(=O)OCOC(C)=O)cc7C6(C)C)C(=O)N(CC)C5=O)nn4)CC3)nc2)cc2c1cnn2C(C)C | 21 | Activity [8]: Active; Activity [9]: Active
